The supplement of paper PMC10627819

How the values were obtained:
Assay in all cases: fitness (endpoint OD595 vs no drug) (fraction); higher = more growth
B. subtilis 168 = test system: B. subtilis 168
How it was run: (§1)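 In 384-well plates at 37 °C, cultures began at OD595 0.01 in 30 µl, with 55 µl used for S. pneumoniae. OD595 readings every 30 min for 14 h were corrected by the first reading. Fitness divides the stationary-phase transition optical density by the robust mean of no-drug control wells. The result is capped at 1.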

S. aureus Newman = test system: S. aureus Newman
How it was run: as §1

S. pneumoniae D39V = test system: S. pneumoniae D39V
How it was run: as §1
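Also: OD595 on entry to stationary phase over no-drug wells; at most 1.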

O=C(O)c1cn(C2CC2)c2cc(N3CCNCC3)c(F)cc2c1=O [Ciprofloxacin] + CC1=C(C(=O)O)N2C(=O)[C@@H](NC(=O)[C@H](N)c3ccccc3)[C@H]2SC1 [Cephalexin]
Conditions | fitness
B. subtilis 168, first compound 0.0098 µg/mL, partner 0.125 µg/mL | 0.886
B. subtilis 168, first compound 0.0098 µg/mL, partner 0.25 µg/mL | 0.88
B. subtilis 168, first compound 0.0098 µg/mL, partner 0.5 µg/mL | 0.829
B. subtilis 168, first compound 0.0195 µg/mL, partner 0.125 µg/mL | 0.69
B. subtilis 168, first compound 0.0195 µg/mL, partner 0.25 µg/mL | 0.68
B. subtilis 168, first compound 0.0195 µg/mL, partner 0.5 µg/mL | 0.705
B. subtilis 168, first compound 0.039 µg/mL, partner 0.125 µg/mL | 0.0501
B. subtilis 168, first compound 0.039 µg/mL, partner 0.25 µg/mL | 0.0506
B. subtilis 168, first compound 0.039 µg/mL, partner 0.5 µg/mL | 0.062
S. aureus Newman, first compound 0.0375 µg/mL, partner 0.25 µg/mL | 0.732
S. aureus Newman, first compound 0.0375 µg/mL, partner 0.5 µg/mL | 0.77
S. aureus Newman, first compound 0.0375 µg/mL, partner 1 µg/mL | 0.753
S. aureus Newman, first compound 0.075 µg/mL, partner 0.25 µg/mL | 0.727
S. aureus Newman, first compound 0.075 µg/mL, partner 0.5 µg/mL | 0.725
S. aureus Newman, first compound 0.075 µg/mL, partner 1 µg/mL | 0.733
S. pneumoniae D39V, first compound 0.125 µg/mL, partner 2 µg/mL | 0.0158
S. pneumoniae D39V, first compound 0.125 µg/mL, partner 4 µg/mL | 0.0138
S. pneumoniae D39V, first compound 0.5 µg/mL, partner 2 µg/mL | 0.0332
S. pneumoniae D39V, first compound 0.5 µg/mL, partner 4 µg/mL | 0.0303

one replicate
Conditions | fitness
B. subtilis 168, first compound 0.0098 µg/mL, partner 1 µg/mL | 0.951
B. subtilis 168, first compound 0.0195 µg/mL, partner 1 µg/mL | 0.75
B. subtilis 168, first compound 0.039 µg/mL, partner 1 µg/mL | 0.183
S. pneumoniae D39V, first compound 0.125 µg/mL, partner 0.125 µg/mL | ≥ 1
S. pneumoniae D39V, first compound 0.125 µg/mL, partner 0.25 µg/mL | 0.996
S. pneumoniae D39V, first compound 0.125 µg/mL, partner 0.5 µg/mL | 0.942
S. pneumoniae D39V, first compound 0.25 µg/mL, partner 0.125 µg/mL | 0.82
S. pneumoniae D39V, first compound 0.25 µg/mL, partner 0.25 µg/mL | 0.849
S. pneumoniae D39V, first compound 0.25 µg/mL, partner 0.5 µg/mL | 0.886
S. pneumoniae D39V, first compound 0.25 µg/mL, partner 1 µg/mL | 0.686
S. pneumoniae D39V, first compound 0.25 µg/mL, partner 2 µg/mL | 0
S. pneumoniae D39V, first compound 0.25 µg/mL, partner 4 µg/mL | 0
S. pneumoniae D39V, first compound 0.5 µg/mL, partner 0.125 µg/mL | 0.473
S. pneumoniae D39V, first compound 0.5 µg/mL, partner 0.25 µg/mL | 0.552
S. pneumoniae D39V, first compound 0.5 µg/mL, partner 0.5 µg/mL | 0.583

CC1(C)S[C@@H]2[C@H](NC(=O)Cc3ccccc3)C(=O)N2[C@H]1C(=O)O [Penicillin G] + CN[C@@H]1[C@H](O)[C@H](NC)[C@H]2O[C@@]3(O)C(=O)C[C@@H](C)O[C@H]3O[C@@H]2[C@H]1O [Spectinomycin]
fitness, S. aureus Newman
Conditions | first compound 0.0195 µg/mL | first compound 0.039 µg/mL | first compound 0.078 µg/mL
partner 4 µg/mL | 0.857 | 0.848 | 0.817
partner 8 µg/mL | 0.852 | 0.857 | 0.828
partner 16 µg/mL | 0.844 | 0.806 | 0.802

fitness, S. aureus Newman, one replicate
Conditions | first compound 0.0195 µg/mL | first compound 0.039 µg/mL | first compound 0.078 µg/mL
partner 32 µg/mL | 0.462 | 0.35 | 0.272
partner 64 µg/mL | 0.0086 | 0.0192 | 0.0551

CN(C)c1cc(NC(=O)CNC(C)(C)C)c(O)c2c1C[C@H]1C[C@H]3[C@H](N(C)C)C(O)=C(C(N)=O)C(=O)[C@@]3(O)C(O)=C1C2=O [Tigecycline] + Cn1nnc(-c2ccc(-c3ccc(N4C[C@H](CO)OC4=O)cc3F)cn2)n1 [Tedizolid]
fitness
Conditions | partner 0.03125 µg/mL | partner 0.0625 µg/mL | partner 0.125 µg/mL | partner 0.25 µg/mL | partner 0.5 µg/mL
S. aureus Newman, first compound 0.039 µg/mL | – | 0.972 | – | – | –
S. aureus Newman, first compound 0.078 µg/mL | – | 0.941 | 0.844 | 0.469 | –
S. aureus Newman, first compound 0.156 µg/mL | – | 0.965 | – | 0.466 | –
S. pneumoniae D39V, first compound 0.65 µg/mL | 0.923 | 0.934 | 0.81 | 0.653 | 0.379
S. pneumoniae D39V, first compound 1.3 µg/mL | 0.911 | 0.903 | 0.791 | 0.658 | 0.353
S. pneumoniae D39V, first compound 2.6 µg/mL | 0.884 | 0.943 | 0.827 | 0.669 | 0.375

O=C(O)c1cn(C2CC2)c2cc(N3CCNCC3)c(F)cc2c1=O [Ciprofloxacin] + CC1(C)S[C@@H]2[C@H](NC(=O)Cc3ccccc3)C(=O)N2[C@H]1C(=O)O [Penicillin G]
fitness, S. aureus Newman
Conditions | first compound 0.0375 µg/mL | first compound 0.075 µg/mL | first compound 0.15 µg/mL
partner 0.0195 µg/mL | 0.66 | 0.582 | 0.0269
partner 0.039 µg/mL | 0.679 | 0.593 | 0.0263
partner 0.078 µg/mL | 0.688 | 0.593 | 0.024

CC1(C)S[C@@H]2[C@H](NC(=O)Cc3ccccc3)C(=O)N2[C@H]1C(=O)O [Penicillin G] + CN[C@@H]1[C@H](O[C@H]2[C@H](O[C@H]3[C@H](O)[C@@H](O)[C@H](N=C(N)N)[C@@H](O)[C@@H]3N=C(N)N)O[C@@H](C)[C@]2(O)C=O)O[C@@H](CO)[C@H](O)[C@H]1O [Streptomycin]
fitness, S. aureus Newman
Conditions | first compound 0.0195 µg/mL | first compound 0.039 µg/mL | first compound 0.078 µg/mL
partner 1 µg/mL | 0.903 | 0.878 | 0.887
partner 2 µg/mL | 0.829 | 0.865 | 0.863

CO/N=C(\C(=O)N[C@@H]1C(=O)N2C(C(=O)O)=C(COC(N)=O)CS[C@H]12)c1ccco1 [Cefuroxime] + CO[C@@]12[C@H](COC(N)=O)C3=C(C(=O)C(C)=C(N)C3=O)N1C[C@@H]1N[C@@H]12 [Mitomycin C]
fitness, S. aureus Newman, one replicate
Conditions | first compound 0.04875 µg/mL | first compound 0.0975 µg/mL | first compound 0.195 µg/mL
partner 0.0156 µg/mL | 0.6 | 0.597 | 0.653
partner 0.0312 µg/mL | 0.35 | 0.338 | 0.332
partner 0.0625 µg/mL | 0.537 | 0.488 | 0.413

CC1(C)S[C@@H]2[C@H](NC(=O)Cc3ccccc3)C(=O)N2[C@H]1C(=O)O [Penicillin G] + CN1C2=CC=CC=C2N=C3C1=CC=CC3=O [Pyocyanin]
fitness, S. aureus Newman
Conditions | first compound 0.0195 µg/mL | first compound 0.039 µg/mL | first compound 0.078 µg/mL
partner 1.25 µg/mL | 0.807 | 0.831 | 0.801
partner 2.5 µg/mL | 0.783 | 0.744 | 0.707
partner 5 µg/mL | 0.434 | 0.334 | 0.302

C[C@@H]1O[C@@H]1P(=O)(O)O [Fosfomycin] + CC1(C)S[C@@H]2[C@H](NC(=O)Cc3ccccc3)C(=O)N2[C@H]1C(=O)O [Penicillin G]
fitness, S. aureus Newman
Conditions | first compound 0.781 µg/mL | first compound 1.562 µg/mL | first compound 3.124 µg/mL
partner 0.0195 µg/mL | 0.582 | 0.498 | 0.167
partner 0.039 µg/mL | 0.583 | 0.516 | 0.171
partner 0.078 µg/mL | 0.54 | 0.508 | 0.153

CO/N=C(\C(=O)N[C@@H]1C(=O)N2C(C(=O)O)=C(COC(N)=O)CS[C@H]12)c1ccco1 [Cefuroxime] + CO/N=C(\C(=O)N[C@@H]1C(=O)N2C(C(=O)[O-])=C(C[N+]3(C)CCCC3)CS[C@H]12)c1csc(N)n1 [Cefepime]
fitness, S. aureus Newman, one replicate
Conditions | first compound 0.04875 µg/mL | first compound 0.0975 µg/mL | first compound 0.195 µg/mL
partner 0.125 µg/mL | 0.984 | 0.841 | 0.925
partner 0.25 µg/mL | 0.871 | 0.821 | 0.922
partner 0.5 µg/mL | 0.88 | 0.731 | 0.864

CC1(C)S[C@@H]2[C@H](NC(=O)Cc3ccccc3)C(=O)N2[C@H]1C(=O)O [Penicillin G] + COc1ccc(C[C@H](N)C(=O)N[C@H]2[C@@H](O)[C@H](n3cnc4c(N(C)C)ncnc43)O[C@@H]2CO)cc1 [Puromycin]
fitness, S. aureus Newman
Conditions | first compound 0.0195 µg/mL | first compound 0.039 µg/mL | first compound 0.078 µg/mL
partner 0.39 µg/mL | 0.879 | 0.933 | 0.909
partner 0.78 µg/mL | 0.914 | 0.935 | 0.868
partner 1.56 µg/mL | 0.929 | 0.941 | 0.961
